Test results published in paper PMC3234597, “Two Panels of Steroid Receptor Luciferase Reporter Cell Lines for Compound Profiling” (Combinatorial Chemistry & High Throughput Screening, 2011).
Entries after “also recorded” stand apart in the source; their conditions may differ. Structures can show the parent of a compound that is named as a salt. Where two headings read alike, the source gives them in different places.

Key:
Assay type in all cases: cell-based
[1] = molecular target: T1, human ERβ (full-length) (Homo sapiens, UniProt Q92731); assay: U2OS-ERβ/3xERE luciferase reporter cell line (full-length receptor)
T1 construct: expression vectors encoding full-length steroid receptors: pcDNA3-hERα and pcDNA3-ERβ; expressed in transfected cells; host or cells: U2OS

[2] = molecular target: T2, ERβ-LBD fused to Gal4-DBD (Homo sapiens, UniProt Q92731); assay: U2OS-ERβ-LBD/9xGal4UAS luciferase reporter cell line
T2 construct: region comprising ERβ-LBD and a piece of the hinge region; expressed in transfected cells; host or cells: U2OS

[3] = molecular target: T3, human GR (full-length) (Homo sapiens, UniProt P04150); assay: U2OS-GR/3xGRE luciferase reporter cell line (full-length receptor)
T3 construct: expression vectors encoding full-length steroid receptors: pcDNA3-hAR and pcDNA3-hGR; host or cells: U2OS
T3 sequence (P04150 1-777): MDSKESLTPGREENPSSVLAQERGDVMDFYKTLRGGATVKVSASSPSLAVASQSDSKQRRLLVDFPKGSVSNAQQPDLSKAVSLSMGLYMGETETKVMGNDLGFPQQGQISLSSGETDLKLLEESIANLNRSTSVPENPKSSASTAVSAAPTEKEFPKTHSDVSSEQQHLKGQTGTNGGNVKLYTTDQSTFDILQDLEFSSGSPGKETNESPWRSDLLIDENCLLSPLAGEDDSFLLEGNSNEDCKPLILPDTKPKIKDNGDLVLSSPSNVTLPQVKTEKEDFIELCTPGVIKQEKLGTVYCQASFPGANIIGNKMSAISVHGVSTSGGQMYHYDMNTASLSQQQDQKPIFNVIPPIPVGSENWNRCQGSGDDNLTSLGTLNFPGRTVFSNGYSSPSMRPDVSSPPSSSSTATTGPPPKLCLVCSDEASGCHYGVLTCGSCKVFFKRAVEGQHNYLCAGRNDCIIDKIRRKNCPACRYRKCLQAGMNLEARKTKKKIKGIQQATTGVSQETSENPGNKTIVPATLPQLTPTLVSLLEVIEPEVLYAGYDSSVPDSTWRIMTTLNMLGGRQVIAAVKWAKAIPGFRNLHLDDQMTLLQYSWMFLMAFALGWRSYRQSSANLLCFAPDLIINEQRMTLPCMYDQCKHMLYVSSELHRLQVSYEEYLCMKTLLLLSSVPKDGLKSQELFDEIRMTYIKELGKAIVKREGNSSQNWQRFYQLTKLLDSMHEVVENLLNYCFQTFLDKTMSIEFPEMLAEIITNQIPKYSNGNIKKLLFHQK

[4] = molecular target: T3, human GR (full-length); assay: U2OS-GR/MMTV luciferase reporter cell line (full-length receptor)
[5] = molecular target: T4, GR-LBD fused to Gal4-DBD (Homo sapiens, UniProt P04150); assay: U2OS-GR-LBD/9xGal4UAS luciferase reporter cell line
T4 construct: expressed in transfected cells; host or cells: U2OS
T4 sequence (P04150 524-758 limits assumed): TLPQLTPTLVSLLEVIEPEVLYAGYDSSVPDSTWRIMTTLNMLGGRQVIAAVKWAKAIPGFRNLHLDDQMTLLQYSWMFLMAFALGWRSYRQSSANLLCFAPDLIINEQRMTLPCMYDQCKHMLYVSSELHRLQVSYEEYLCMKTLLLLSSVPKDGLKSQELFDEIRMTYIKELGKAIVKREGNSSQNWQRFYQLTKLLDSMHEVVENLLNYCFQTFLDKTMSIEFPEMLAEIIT

[6] = molecular target: T5, PR-LBD fused to Gal4-DBD (Homo sapiens, UniProt P06401); assay: U2OS-PR-LBD/9xGal4UAS luciferase reporter cell line
T5 construct: PR-LBD region was PCR amplified using the following primer combination; host or cells: U2OS
T5 sequence (P06401 679-913 limits assumed): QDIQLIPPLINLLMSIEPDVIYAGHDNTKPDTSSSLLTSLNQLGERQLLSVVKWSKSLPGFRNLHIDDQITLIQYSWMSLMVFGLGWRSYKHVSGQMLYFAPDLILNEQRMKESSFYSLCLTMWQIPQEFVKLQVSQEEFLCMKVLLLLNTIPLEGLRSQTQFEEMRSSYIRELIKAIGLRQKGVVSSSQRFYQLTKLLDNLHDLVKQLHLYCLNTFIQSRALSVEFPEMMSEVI

[7] = molecular target: T6, human MR (full-length) (Homo sapiens, UniProt P08235); assay: U2OS-MR/MMTV luciferase reporter cell line (full-length receptor); settings: for activity profile in words: full-length MR format
T6 construct: expression vectors encoding full-length steroid receptors: pcDNA3-hAR, pcDNA3-hGR and pcDNA3-hMR; expressed in transfected cells; host or cells: U2OS
T6 sequence (P08235 1-984): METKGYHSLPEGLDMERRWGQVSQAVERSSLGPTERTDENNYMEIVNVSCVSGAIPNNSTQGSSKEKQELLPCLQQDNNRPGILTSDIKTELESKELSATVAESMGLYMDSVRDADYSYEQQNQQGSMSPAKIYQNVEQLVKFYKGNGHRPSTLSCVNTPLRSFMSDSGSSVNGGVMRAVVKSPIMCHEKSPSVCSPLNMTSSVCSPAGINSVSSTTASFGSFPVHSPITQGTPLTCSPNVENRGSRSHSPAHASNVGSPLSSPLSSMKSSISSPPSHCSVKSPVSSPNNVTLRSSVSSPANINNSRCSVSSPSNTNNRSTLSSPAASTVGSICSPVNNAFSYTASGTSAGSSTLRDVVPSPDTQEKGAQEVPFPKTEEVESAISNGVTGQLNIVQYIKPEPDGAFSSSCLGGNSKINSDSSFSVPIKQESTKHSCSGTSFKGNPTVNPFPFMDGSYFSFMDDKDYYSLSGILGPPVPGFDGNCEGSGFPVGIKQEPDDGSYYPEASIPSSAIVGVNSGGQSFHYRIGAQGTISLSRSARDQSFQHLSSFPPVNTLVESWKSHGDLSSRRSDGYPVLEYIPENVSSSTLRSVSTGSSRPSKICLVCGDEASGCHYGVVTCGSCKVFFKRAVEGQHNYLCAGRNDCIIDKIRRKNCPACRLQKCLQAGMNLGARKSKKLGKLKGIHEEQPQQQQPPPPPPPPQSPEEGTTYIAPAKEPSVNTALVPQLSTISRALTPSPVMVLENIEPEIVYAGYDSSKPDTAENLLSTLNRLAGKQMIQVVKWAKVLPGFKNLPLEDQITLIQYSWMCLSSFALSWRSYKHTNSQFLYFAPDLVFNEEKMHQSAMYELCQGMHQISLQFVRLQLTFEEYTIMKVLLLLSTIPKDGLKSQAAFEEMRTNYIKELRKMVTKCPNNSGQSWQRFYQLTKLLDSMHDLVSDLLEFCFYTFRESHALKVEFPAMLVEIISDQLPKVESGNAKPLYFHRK

[8] = molecular target: T7, MR-LBD fused to Gal4-DBD (Homo sapiens, UniProt P08235); assay: U2OS-MR-LBD/9xGal4UAS luciferase reporter cell line; settings: for activity profile in words: MR-LBD expressing reporter cell line, agonist and antagonist mode
T7 construct: MR-LBD was cloned by RT-PCR from total RNA isolated from HEK293 cells; expressed in transfected cells; host or cells: U2OS
T7 sequence (P08235 726-964 limits assumed): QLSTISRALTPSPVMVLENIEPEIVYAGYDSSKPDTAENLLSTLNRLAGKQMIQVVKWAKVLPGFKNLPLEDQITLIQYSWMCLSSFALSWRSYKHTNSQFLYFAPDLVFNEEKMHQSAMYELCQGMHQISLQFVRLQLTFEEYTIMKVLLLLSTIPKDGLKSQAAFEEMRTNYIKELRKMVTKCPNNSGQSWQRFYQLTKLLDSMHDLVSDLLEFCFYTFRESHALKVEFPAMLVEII

[9] = antagonist mode, PR-LBD/9xGal4UAS, log10 of molar IC50, mean ± SEM, read-out: Log IC50 (converted)

T1 sequence (Q92731 whole entry): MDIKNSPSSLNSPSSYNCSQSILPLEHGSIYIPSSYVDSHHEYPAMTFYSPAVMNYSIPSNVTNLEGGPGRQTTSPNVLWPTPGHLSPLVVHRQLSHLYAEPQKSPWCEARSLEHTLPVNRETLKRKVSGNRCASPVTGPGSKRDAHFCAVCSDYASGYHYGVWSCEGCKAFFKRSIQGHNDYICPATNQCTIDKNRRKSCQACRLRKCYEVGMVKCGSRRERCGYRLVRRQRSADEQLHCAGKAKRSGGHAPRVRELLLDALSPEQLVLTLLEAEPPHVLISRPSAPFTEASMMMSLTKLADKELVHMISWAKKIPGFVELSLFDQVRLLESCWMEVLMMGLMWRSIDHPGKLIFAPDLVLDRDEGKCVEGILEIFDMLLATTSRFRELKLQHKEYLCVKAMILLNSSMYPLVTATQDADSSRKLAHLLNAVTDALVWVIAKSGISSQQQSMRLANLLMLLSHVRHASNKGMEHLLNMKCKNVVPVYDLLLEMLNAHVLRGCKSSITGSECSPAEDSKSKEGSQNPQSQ
T2 sequence (Q92731 264-498 limits assumed): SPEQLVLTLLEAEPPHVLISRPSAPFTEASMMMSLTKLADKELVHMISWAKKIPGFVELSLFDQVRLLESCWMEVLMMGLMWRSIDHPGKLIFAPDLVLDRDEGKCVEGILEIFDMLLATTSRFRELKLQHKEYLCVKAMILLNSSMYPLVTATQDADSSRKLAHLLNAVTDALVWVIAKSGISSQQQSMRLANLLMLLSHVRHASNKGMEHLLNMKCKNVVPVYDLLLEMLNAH

CC(=O)C1(O)CCC2C3CCC4=CC(=O)CCC4(C)C3CCC21C (stereo not drawn) [17α-hydroxyprogesterone]
EC50 ([1]; read-out: Log EC50 (converted)): > 10 µM | EC50 ([2]; read-out: Log EC50 (converted)): > 10 µM | EC50 ([3]; read-out: Log EC50 (converted)): > 10 µM | EC50 ([4]; read-out: Log EC50 (converted)): > 10 µM | EC50 ([5]; read-out: Log EC50 (converted)): > 10 µM | IC50 [6, 9]: > 10 µM | EC50 ([6]; read-out: Log EC50 (converted)): > 10 µM

CC1(C)NC(=O)N(c2ccc([N+](=O)[O-])c(C(F)(F)F)c2)C1=O [Nilutamide, nilutamide]
EC50 ([1]; read-out: Log EC50 (converted)): > 10 µM | EC50 ([2]; read-out: Log EC50 (converted)): > 10 µM | EC50 ([7]; read-out: Log EC50 (converted)): > 10 µM | EC50 ([8]; read-out: Log EC50 (converted)): > 10 µM | IC50 [6, 9]: > 10 µM | EC50 ([6]; read-out: Log EC50 (converted)): > 10 µM

CC/C(=C(/CC)c1ccc(O)cc1)c1ccc(O)cc1 [DES, Diethylstilbestrol]
EC50 ([7]; read-out: Log EC50 (converted)): > 10 µM | EC50 ([8]; read-out: Log EC50 (converted)): > 10 µM

4-hydroxy-tamoxifen
Log EC50 ([3]; agonist mode, GR/3xGRE, 20 h, log10 of molar EC50, mean ± SEM): > -5.00 M | Log IC50 ([3]; antagonist mode, GR/3xGRE, in the presence of 5 nM dexamethasone, log10 of molar IC50, mean ± SEM): > -5.00 M | Log EC50 ([4]; agonist mode, GR/MMTV, 20 h, log10 of molar EC50, mean ± SEM): > -5.00 M | Log IC50 ([4]; antagonist mode, GR/MMTV, in the presence of 5 nM dexamethasone, log10 of molar IC50, mean ± SEM): > -5.00 M | Log EC50 ([5]; agonist mode, GR-LBD/9xGal4UAS, 20 h, log10 of molar EC50, mean ± SEM): > -5.00 M | Log IC50 ([5]; antagonist mode, GR-LBD/9xGal4UAS, in the presence of 5 nM dexamethasone, log10 of molar IC50, mean ± SEM): > -5.00 M | Log EC50 ([7]; agonist mode, MR/MMTV, 20 h, log10 of molar EC50, mean ± SEM): > -5.00 M | Log IC50 ([7]; antagonist mode, MR/MMTV, in the presence of 1 nM aldosterone, log10 of molar IC50, mean ± SEM): > -5.00 M | Log EC50 ([8]; agonist mode, MR-LBD/9xGal4UAS, 20 h, log10 of molar EC50, mean ± SEM): > -5.00 M | Log IC50 ([8]; antagonist mode, MR-LBD/9xGal4UAS, in the presence of 1 nM aldosterone, log10 of molar IC50, mean ± SEM): > -5.00 M

C[C@]12CCC(=O)C[C@@H]1CC[C@@H]1[C@@H]2CC[C@]2(C)[C@@H](O)CC[C@@H]12 [Dihydrotestosterone, 5α-androstan-17β-ol-3-one]
EC50 [7]: > 10 µM | EC50 [8]: > 10 µM | EC50 [6]: 0.398 µM | IC50 [6]: > 10 µM

C[C@@H]1C[C@H]2[C@@H]3CCC4=CC(=O)C=C[C@]4(C)[C@@]3(F)[C@@H](O)C[C@]2(C)[C@@]1(O)C(=O)CO [Dexamethasone, dexamethasone]
activity profile in words ([7]; antagonist mode): no sign of antagonistic activity | activity profile in words [8]: only weakly and partially activated; also recorded: pronounced full antagonist effect | IC50 [6, 9]: > 10 µM | EC50 ([6]; read-out: Log EC50 (converted)): 4.79 µM

C[C@H]1C[C@H]2[C@@H]3CCC4=CC(=O)C=C[C@]4(C)[C@@]3(F)[C@@H](O)C[C@]2(C)[C@@]1(O)C(=O)CO [Betamethasone, betamethasone]
activity profile in words ([7]; antagonist mode): no sign of antagonistic activity | activity profile in words [8]: only weakly and partially activated; also recorded: pronounced full antagonist effect | IC50 [6, 9]: > 10 µM | EC50 ([6]; read-out: Log EC50 (converted)): 4.79 µM

O=C(c1ccc(OCCN2CCCCC2)cc1)c1c(-c2ccc(O)cc2)sc2cc(O)ccc12 [Raloxifene hydrochloride, raloxifene hydrochloride]
EC50 ([7]; read-out: Log EC50 (converted)): > 10 µM | EC50 ([8]; read-out: Log EC50 (converted)): > 10 µM

CC(=O)O[C@]1(C(C)=O)CC[C@H]2[C@@H]3C=C(Cl)C4=CC(=O)[C@@H]5C[C@@H]5[C@]4(C)[C@H]3CC[C@@]21C [Cyproterone acetate, cyproterone acetate]
luciferase activity in ERβ reporter cell lines ([1]; ERβ reporter cell lines, even at 10 μM concentration): did not find any sign of luciferase activity | EC50 ([1]; read-out: Log EC50 (converted)): > 10 µM | EC50 ([2]; read-out: Log EC50 (converted)): > 10 µM | EC50 ([7]; read-out: Log EC50 (converted)): > 10 µM | EC50 ([8]; read-out: Log EC50 (converted)): > 10 µM

C[C@]12CC[C@H]3[C@@H](CCC4=CC(=O)CC[C@@]43C)[C@@H]1CC[C@@H]2O [Testosterone, testosterone]
EC50 [1]: 0.49 µM | EC50 [2]: 2.88 µM | EC50 [3]: > 10 µM | EC50 [4]: > 10 µM | EC50 [5]: > 10 µM | EC50 [7]: > 10 µM | EC50 [8]: > 10 µM | EC50 [6]: 0.0468 µM | IC50 [6]: > 10 µM

CC#C[C@]1(O)CC[C@H]2[C@@H]3CCC4=CC(=O)CCC4=C3[C@@H](c3ccc(N(C)C)cc3)C[C@@]21C [Mifepristone (RU486), mifepristone]
activity profile in words ([3]; full-length GR reporter cell line U2OS-GR/3xGRE): partial agonist/full antagonist | activity profile in words ([4]; full-length GR reporter cell line U2OS-GR/MMTV): partial agonist/full antagonist | activity profile in words ([5]; GR LBD format (U2OS-GR-LBD/9xGal4UAS)): very potent pure full antagonist

CC/C(=C(\c1ccccc1)c1ccc(OCCN(C)C)cc1)c1ccccc1 [Tamoxifen citrate, tamoxifen citrate]
EC50 ([3]; read-out: Log EC50 (converted)): > 10 µM | EC50 ([4]; read-out: Log EC50 (converted)): > 10 µM | EC50 ([5]; read-out: Log EC50 (converted)): > 10 µM | EC50 ([7]; read-out: Log EC50 (converted)): > 10 µM | EC50 ([8]; read-out: Log EC50 (converted)): > 10 µM
